Measurements published in ChEMBL document CHEMBL1144445, “Design, synthesis and antiviral activity of novel 4,5-disubstituted 7-(beta-D-ribofuranosyl)pyrrolo[2,3-d][1,2,3]triazines and the novel 3-amino-5-methyl-1-(beta-D-ribofuranosyl)- and 3-amino-5-methyl-1-(2-deoxy-beta-D-ribofuranosyl)-1,5-dihydro-1,4,5,6,7,8-hexaazaacenaphthylene as analogues of …” (J Med Chem, 2005).

Tests used:
Human alphaherpesvirus 1 = assay: Inhibitory concentration against human herpes simplex virus type 1 using ELISA test; assay type: functional, organism-based
HFF = assay: Visual cytotoxicity was determined in uninfected HFF cells using plaque assay; assay type: functional, cell-based; settings: Homo sapiens
KB = assay: Inhibitory concentration was determined for KB cell growth; assay type: functional, cell-based; settings: Homo sapiens
Human betaherpesvirus 5 [1] = assay: Inhibitory concentration against human cytomegalovirus using plaque assay; assay type: functional, organism-based
Human betaherpesvirus 5 [2] = assay: Inhibitory concentration against human cytomegalovirus using yield-reduction assay; assay type: functional
[3] = system: Human immunodeficiency virus 1; assay: Inhibitory concentration against human immunodeficiency virus type 1; assay type: functional, organism-based

Row | Compound | IC50 (Human alphaherpesvirus 1) [µM] | IC50 (HFF) [µM] | IC50 (KB) [µM] | IC50 (Human betaherpesvirus 5 [1]) [µM] | IC90 (Human betaherpesvirus 5 [2]) [µM] | IC50 [3] [µM]
1 | CCOC(=O)c1cn([C@@H]2O[C@H](CO)[C@@H](O)[C@H]2O)c2nnnc(N)c12 | > 100 | > 100 | 80 | > 100 | – | –
2 | NC(=S)c1cn([C@@H]2O[C@H](CO)[C@@H](O)[C@H]2O)c2nnnc(N)c12 | 40 | 32 | 2 | 8.5 | – | –
3 | CN(N)c1nnnc2c1c(C#N)cn2[C@@H]1O[C@H](COC(=O)c2ccccc2)[C@@H](OC(=O)c2ccccc2)[C@H]1OC(=O)c1ccccc1 | > 10 | > 10 | > 10 | > 10 | – | –
4 | NC(=O)c1cn([C@@H]2O[C@H](COC(=O)c3ccccc3)[C@@H](OC(=O)c3ccccc3)[C@H]2OC(=O)c2ccccc2)c(N)c1C(N)=O | > 10 | > 10 | > 10 | > 10 | – | –
5 | N=C(NN)c1cn([C@@H]2O[C@H](CO)[C@@H](O)[C@H]2O)c2nnnc(N)c12 | 80 | 32 | 3 | 32 | 1 | –
6 | N#Cc1cn([C@@H]2O[C@H](COC(=O)c3ccccc3)[C@@H](OC(=O)c3ccccc3)[C@H]2OC(=O)c2ccccc2)c2nnnc(-n3cncn3)c12 | > 10 | > 10 | > 10 | > 10 | – | –
7 | N/C(=N\O)c1cn([C@@H]2O[C@H](CO)[C@@H](O)[C@H]2O)c2nnnc(N)c12 | 0.9 | 6.6 | 1.5 | < 2 | – | –
8 | N#C/N=C(\N)c1cn([C@@H]2O[C@H](CO)[C@@H](O)[C@H]2O)c2nnnc(N)c12 | > 100 | > 100 | 5 | > 100 | – | –
9 | COC(=N)c1cn([C@@H]2O[C@H](CO)[C@@H](O)[C@H]2O)c2nnnc(N)c12 | > 100 | 21 | 20 | 32 | – | –
10 | NC(=O)c1cn([C@@H]2O[C@H](CO)[C@@H](O)[C@H]2O)c2nnnc(N)c12 | 2.5 | 0.3 | 0.08 | 0.3 | 0.4 | –
11 | NC(=O)c1cn([C@@H]2O[C@H](COC(=O)c3ccccc3)[C@@H](OC(=O)c3ccccc3)[C@H]2OC(=O)c2ccccc2)c2nnnc(O)c12 | > 10 | > 10 | > 10 | > 10 | – | –
12 | CN1N=C(N)c2cn([C@@H]3O[C@H](CO)[C@@H](O)[C@H]3O)c3nnnc1c23 | > 100 | 10 | 2.5 | 14 | – | 0.6
13 | Cc1ccc(C(=O)OC[C@H]2O[C@@H](n3cc(C(N)=O)c(C(N)=O)c3N)C[C@@H]2OC(=O)c2ccc(C)cc2)cc1 | > 100 | 32 | 100 | 12 | – | –
14 | Cc1ccc(C(=O)OC[C@H]2O[C@@H](n3cc(C(N)=O)c(C(N)=O)c3[N+](=O)[O-])C[C@@H]2OC(=O)c2ccc(C)cc2)cc1 | > 100 | 32 | – | 32 | – | –
